Measured values reported in patent publication EP0431323A1, “Antitumor antibiotic BU-3983T” (priority 1989, dated 1991).
Read-outs that look alike come from different tables or passages of the source.

Columns and labels:
[1] = tested on: P388 leukemia; assay: In vivo antitumor activity in tumor-bearing mice, P388 leukemia (ip); settings: for Body weight change on day 4 / MST (Median survival time) / T/C: P388 leukemia ip, CDF₁ mice, Q1D x 1; for T/C: significant if T/C ≧ 125%
Description: (§1) In vivo antitumor activity of BU-3983T was examined using tumor-bearing mice. Male BDF₁ mice were intraperitoneally inoculated with 0.5 ml of 10% melanotic melanoma B16 brei, and female CDF₁ mice were intraperitoneally inoculated with 0.4 ml of diluted ascitic fluid containing 10⁶ lymphocytic leukemia P388 cells or 10⁵ lymphoid leukemia L1210 cells. Mitomycin C was used as a reference compound. Test compounds were intraperitoneally administered to the mice by the following treatment schedules: once a day on day 1 only (Q1D x 1), on days 1, 5 and 9 (Q4D x 3) or on days 1 to 9 (Q1D x 9). […]

[2] = tested on: B16 melanoma; assay: In vivo antitumor activity in tumor-bearing mice, B16 melanoma (ip); settings: for Body weight change on day 5 / MST (Median survival time) / T/C: B16 melanoma ip, BDF₁ mice; for T/C: significant if T/C ≧ 125%
Description: as §1

[3] = tested on: HCT-116 (human colon carcinoma); settings: HCT-116 cells, 72 hours
Description: (§2) BU-3983T was tested for in vitro cytotoxicity against murine and human cell lines and for in vivo antitumor activity in mice. B16-F10 (murine melanoma) and Moser (human colorectal carcinoma) cells were grown to the logarithmic phase in the enriched Eagle minimum essential medium supplemented with fetal calf serum (FCS, 10%) and kanamycin (60 µg/ml), and HCT-116 (human colon carcinoma) were in McCoy's 5A medium supplemented with FCS (10%), penicillin (100 U/ml) and streptomycin (100 µg/ml). B16-F10, Moser and HCT-116 cells were harvested and implanted into wells of a 96-well microtiter plate at the inoculum sizes of 1.5 x 10⁴, 3 x 10⁴ and 3 x 10⁴ cells/ml, respectively. They were incubated with test materials at 37°C in humidified atmosphere of 5% CO₂ and 95% air for 72 hours. The cytotoxicity against tumor cells was determined colorimetrically at 540 nm after staining viable cells.

[4] = tested on: B16-F10 (murine melanoma)
Description: as §2

[5] = tested on: Moser (human colorectal carcinoma); settings: Moser cells, 72 hours
Description: as §2

[6] = tested on: L1210 leukemia; assay: In vivo antitumor activity in tumor-bearing mice, L1210 leukemia (ip); settings: for Body weight change on day 4 / MST (Median survival time) / T/C: L1210 leukemia ip, CDF₁ mice, Q1D x 1; for T/C: significant if T/C ≧ 125%
Description: as §1

[7] = Antimicrobial activity (no method given)
[8] = tested on: Protein synthesis in B16-F10 melanoma cells; assay: Inhibition of macromolecule synthesis: protein (3H-leucine incorporation); assay type: cell-based, murine
Description: (§3) B16-F10 cells (10⁵ cells/ml) were incubated with test materials at 37°C for 4.5 hours (for DNA synthesis) or 4 hours (for RNA and protein syntheses). Labelled precursor, ³H-thymidine, ¹⁴C-uridine or ³H-leucine was added to the culture and further incubated for 30 minutes (for DNA) or 60 minutes (for RNA and protein). After washing with chilled 5% trichloroacetic acid solution, the radioactivity incorporated into the acid-insoluble fraction of the tumor cells was determined by a liquid scintillation counter. Actinomycin D was used as a reference compound.

[9] = tested on: RNA synthesis in B16-F10 melanoma cells; assay: Inhibition of macromolecule synthesis: RNA (14C-uridine incorporation); assay type: cell-based, murine; settings: 4 hours + 60 minutes label
Description: as §3

[10] = tested on: DNA synthesis in B16-F10 melanoma cells; assay: Inhibition of macromolecule synthesis: DNA (3H-thymidine incorporation); assay type: cell-based, murine; settings: 4.5 hours + 30 minutes label
Description: as §3

CCC(C)CC(C)CC(C)/C=C(\C)C1OC(O)(C(C)(O)C(=O)NC2C(=O)N3NCCCC3C(=O)N(O)CC(=O)N(C)CC(=O)NCC(=O)N(C)CC(=O)OC2C(C)C)CCC1OC (centres unmarked) [BU-3983T]
Body weight change on day 4 ([1]; 0.25 mg/kg/day ip): +0.3 g
MST (Median survival time) ([1]; 0.25 mg/kg/day ip): 11.0 days
T/C ([1]; 0.25 mg/kg/day ip): 110%
Body weight change on day 4 ([1]; 0.5 mg/kg/day ip): -0.5 g
MST (Median survival time) ([1]; 0.5 mg/kg/day ip): 10.0 days
T/C ([1]; 0.5 mg/kg/day ip): 100%
Body weight change on day 4 ([1]; 1 mg/kg/day ip): -1.5 g
MST (Median survival time) ([1]; 1 mg/kg/day ip): 10.0 days
T/C ([1]; 1 mg/kg/day ip): 100%
Body weight change on day 4 ([1]; 2 mg/kg/day ip): -2.0 g
MST (Median survival time) ([1]; 2 mg/kg/day ip): 10.0 days
T/C ([1]; 2 mg/kg/day ip): 100%
Body weight change on day 4 ([1]; 4 mg/kg/day ip): -2.3 g
MST (Median survival time) ([1]; 4 mg/kg/day ip): 11.0 days
T/C ([1]; 4 mg/kg/day ip): 110%
Body weight change on day 4 ([1]; 8 mg/kg/day ip): -2.5 g
MST (Median survival time) ([1]; 8 mg/kg/day ip): 11.5 days
T/C ([1]; 8 mg/kg/day ip): 115%
prolongation of lifespan ([1]; P388 leukemia system, ip): no significant prolongation of lifespan
Body weight change on day 5 ([2]; 0.031 mg/kg/day ip, Q1D x 9): +1.0 g
MST (Median survival time) ([2]; 0.031 mg/kg/day ip, Q1D x 9): 16.0 days
T/C ([2]; 0.031 mg/kg/day ip, Q1D x 9): 110%
Body weight change on day 5 ([2]; 0.063 mg/kg/day ip, Q1D x 9): +1.0 g
MST (Median survival time) ([2]; 0.063 mg/kg/day ip, Q1D x 9): 17.5 days
T/C ([2]; 0.063 mg/kg/day ip, Q1D x 9): 121%
Body weight change on day 5 ([2]; 0.063 mg/kg/day ip, Q4D x 3): +0.5 g
MST (Median survival time) ([2]; 0.063 mg/kg/day ip, Q4D x 3): 14.0 days
T/C ([2]; 0.063 mg/kg/day ip, Q4D x 3): 108%
Body weight change on day 5 ([2]; 0.13 mg/kg/day ip, Q1D x 1): +0.5 g
MST (Median survival time) ([2]; 0.13 mg/kg/day ip, Q1D x 1): 14.0 days
T/C ([2]; 0.13 mg/kg/day ip, Q1D x 1): 108%
Body weight change on day 5 ([2]; 0.13 mg/kg/day ip, Q1D x 9): -0.3 g
MST (Median survival time) ([2]; 0.13 mg/kg/day ip, Q1D x 9): 19.0 days
T/C ([2]; 0.13 mg/kg/day ip, Q1D x 9): 131*² %
Body weight change on day 5 ([2]; 0.13 mg/kg/day ip, Q4D x 3): +0.0 g
MST (Median survival time) ([2]; 0.13 mg/kg/day ip, Q4D x 3): 15.0 days
T/C ([2]; 0.13 mg/kg/day ip, Q4D x 3): 115%
Body weight change on day 5 ([2]; 0.25 mg/kg/day ip, Q1D x 1): 0.0 g
MST (Median survival time) ([2]; 0.25 mg/kg/day ip, Q1D x 1): 17.0 days
T/C ([2]; 0.25 mg/kg/day ip, Q1D x 1): 131*² %
Body weight change on day 5 ([2]; 0.25 mg/kg/day ip, Q1D x 9): -1.0 g
MST (Median survival time) ([2]; 0.25 mg/kg/day ip, Q1D x 9): 19.5 days
T/C ([2]; 0.25 mg/kg/day ip, Q1D x 9): 138*² %
Body weight change on day 5 ([2]; 0.25 mg/kg/day ip, Q4D x 3): 0.0 g
MST (Median survival time) ([2]; 0.25 mg/kg/day ip, Q4D x 3): 16.0 days
T/C ([2]; 0.25 mg/kg/day ip, Q4D x 3): 123%
Body weight change on day 5 ([2]; 0.5 mg/kg/day ip, Q1D x 1): -1.0 g
MST (Median survival time) ([2]; 0.5 mg/kg/day ip, Q1D x 1): 17.0 days
T/C ([2]; 0.5 mg/kg/day ip, Q1D x 1): 131*² %
Body weight change on day 5 ([2]; 0.5 mg/kg/day ip, Q1D x 9): -4.0 g
MST (Median survival time) ([2]; 0.5 mg/kg/day ip, Q1D x 9): 20.0 days
T/C ([2]; 0.5 mg/kg/day ip, Q1D x 9): 148*² %
Body weight change on day 5 ([2]; 0.5 mg/kg/day ip, Q4D x 3): -0.5 g
MST (Median survival time) ([2]; 0.5 mg/kg/day ip, Q4D x 3): 19.0 days
T/C ([2]; 0.5 mg/kg/day ip, Q4D x 3): 146*² %
Body weight change on day 5 ([2]; 1 mg/kg/day ip, Q1D x 1): -4.0 g
MST (Median survival time) ([2]; 1 mg/kg/day ip, Q1D x 1): 16.5 days
T/C ([2]; 1 mg/kg/day ip, Q1D x 1): 127*² %
MST (Median survival time) ([2]; 1 mg/kg/day ip, Q1D x 9): Tox
T/C ([2]; 1 mg/kg/day ip, Q1D x 9): Tox
Body weight change on day 5 ([2]; 1 mg/kg/day ip, Q4D x 3): -2.3 g
MST (Median survival time) ([2]; 1 mg/kg/day ip, Q4D x 3): 17.5 days
T/C ([2]; 1 mg/kg/day ip, Q4D x 3): 135*² %
Body weight change on day 5 ([2]; 2 mg/kg/day ip, Q1D x 1): -4.8 g
MST (Median survival time) ([2]; 2 mg/kg/day ip, Q1D x 1): 21.0 days
T/C ([2]; 2 mg/kg/day ip, Q1D x 1): 162*² %
Body weight change on day 5 ([2]; 2 mg/kg/day ip, Q4D x 3): -4.0 g
MST (Median survival time) ([2]; 2 mg/kg/day ip, Q4D x 3): 18.0 days
T/C ([2]; 2 mg/kg/day ip, Q4D x 3): 138*² %
Body weight change on day 5 ([2]; 4 mg/kg/day ip, Q1D x 1): -5.3 g
MST (Median survival time) ([2]; 4 mg/kg/day ip, Q1D x 1): 19.0 days
T/C ([2]; 4 mg/kg/day ip, Q1D x 1): 146*² %
Body weight change on day 5 ([2]; 8 mg/kg/day ip, Q1D x 1): -5.3 g
MST (Median survival time) ([2]; 8 mg/kg/day ip, Q1D x 1): 17.5 days
T/C ([2]; 8 mg/kg/day ip, Q1D x 1): 135*² %
maximum T/C ([2]; B16 melanoma, by various treatment schedules (Q1D x 1, Q4D x 3, Q1D x 9), ip): 146-162%
IC₅₀ [3]: 0.04 µg/mL
IC₅₀ ([4]; B16-F10 cells, 72 hours): 0.004 µg/mL
times more potent against B16-F10 than against HCT-116 ([4]; ratio of IC₅₀ values, B16-F10 vs HCT-116): 10 times
times more potent against B16-F10 than against Moser ([4]; ratio of IC₅₀ values, B16-F10 vs Moser): 100 times
IC₅₀ [5]: 0.4 µg/mL
Body weight change on day 4 ([6]; 0.25 mg/kg/day ip): +0.8 g
MST (Median survival time) ([6]; 0.25 mg/kg/day ip): 8.0 days
T/C ([6]; 0.25 mg/kg/day ip): 100%
Body weight change on day 4 ([6]; 0.5 mg/kg/day ip): -0.5 g
MST (Median survival time) ([6]; 0.5 mg/kg/day ip): 8.0 days
T/C ([6]; 0.5 mg/kg/day ip): 100%
Body weight change on day 4 ([6]; 1 mg/kg/day ip): -2.0 g
MST (Median survival time) ([6]; 1 mg/kg/day ip): 8.0 days
T/C ([6]; 1 mg/kg/day ip): 100%
Body weight change on day 4 ([6]; 2 mg/kg/day ip): -2.0 g
MST (Median survival time) ([6]; 2 mg/kg/day ip): 9.0 days
T/C ([6]; 2 mg/kg/day ip): 113%
Body weight change on day 4 ([6]; 4 mg/kg/day ip): -2.5 g
MST (Median survival time) ([6]; 4 mg/kg/day ip): 9.5 days
T/C ([6]; 4 mg/kg/day ip): 119%
MST (Median survival time) ([6]; 8 mg/kg/day ip): Tox
T/C ([6]; 8 mg/kg/day ip): Tox
prolongation of lifespan ([6]; L1210 leukemia system, ip): no significant prolongation of lifespan
antimicrobial activity [7]: weak
IC₅₀ Protein ([8]; 4 hours + 60 minutes label): >1.0 µg/mL
inhibition of protein synthesis ([8]; at 1.0 µg/ml): only weak inhibition
IC₅₀ RNA [9]: 0.29 µg/mL
IC₅₀ DNA [10]: 0.26 µg/mL
solubility (in acetonitrile, methanol, chloroform, dimethyl sulfoxide and dimethylformamide): readily soluble
solubility (in n-butanol, ethanol and ethyl acetate): slightly soluble
solubility (in n-hexane and water): practically insoluble
